In patent publication US11492335B2, “Aryl or heteroaryl triazolone derivatives or salts thereof, or pharmaceutical compositions comprising the same” (YUHAN CORPORATION, priority 2018, dated 2022):
Where a name gives a salt, the structure may show the parent alone. Read-outs that look alike come from different tables or passages of the source.

Columns and labels:
Format in all cases: biochemical
[1] = biological target: T1, recombinant human VAP-1 (Homo sapiens, UniProt Q16853); assay: Activity on recombinant human VAP-1, Amplex Red HRP-coupled hydrogen peroxide assay, benzylamine substrate; conditions: recombinant human VAP-1, benzylamine substrate, read-out: Inhibitory Activity (IC50, nM) human VAP-1
T1 construct: purchased R&D systems
T1 sequence (Q16853 1-763): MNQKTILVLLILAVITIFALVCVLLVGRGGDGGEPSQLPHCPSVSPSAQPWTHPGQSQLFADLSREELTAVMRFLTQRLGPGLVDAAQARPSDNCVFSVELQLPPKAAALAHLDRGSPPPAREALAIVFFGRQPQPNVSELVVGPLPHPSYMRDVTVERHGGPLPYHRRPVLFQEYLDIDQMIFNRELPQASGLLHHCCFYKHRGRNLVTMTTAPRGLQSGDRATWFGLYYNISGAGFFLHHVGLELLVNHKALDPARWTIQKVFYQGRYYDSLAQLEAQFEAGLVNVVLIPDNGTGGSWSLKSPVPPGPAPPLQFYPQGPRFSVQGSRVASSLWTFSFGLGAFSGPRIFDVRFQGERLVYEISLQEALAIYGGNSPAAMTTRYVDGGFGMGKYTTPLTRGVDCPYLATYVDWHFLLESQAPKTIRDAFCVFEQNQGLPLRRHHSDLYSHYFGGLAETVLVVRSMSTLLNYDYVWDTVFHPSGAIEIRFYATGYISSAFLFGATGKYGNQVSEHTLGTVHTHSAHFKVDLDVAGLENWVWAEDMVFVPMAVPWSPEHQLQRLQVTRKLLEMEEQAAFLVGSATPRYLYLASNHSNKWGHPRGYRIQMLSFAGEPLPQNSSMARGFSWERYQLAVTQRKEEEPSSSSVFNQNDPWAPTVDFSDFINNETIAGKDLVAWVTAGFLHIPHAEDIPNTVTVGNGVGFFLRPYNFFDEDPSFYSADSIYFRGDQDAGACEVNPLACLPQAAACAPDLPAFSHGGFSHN
Procedure, shortened: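 Enzyme in 50 mM sodium phosphate (pH 7.4) is exposed to test compound for 30 min at 37 °C. Benzylamine (1 mM) with HRP and Amplex Red then starts the reaction, and the fluorescence rate, relative to a DMSO-only control, gives IC50.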

[2] = biological target: T2, recombinant human MAO-A (monoamine oxidase-A) (Homo sapiens, UniProt P21397); assay: Activity on recombinant human MAO-A, Amplex Red method, 0.5 mM tyramine substrate; conditions: read-out: Inhibitory Activity (IC50, nM) MAO-A
T2 construct: purchased Sigma-Aldrich
T2 sequence (P21397 1-527): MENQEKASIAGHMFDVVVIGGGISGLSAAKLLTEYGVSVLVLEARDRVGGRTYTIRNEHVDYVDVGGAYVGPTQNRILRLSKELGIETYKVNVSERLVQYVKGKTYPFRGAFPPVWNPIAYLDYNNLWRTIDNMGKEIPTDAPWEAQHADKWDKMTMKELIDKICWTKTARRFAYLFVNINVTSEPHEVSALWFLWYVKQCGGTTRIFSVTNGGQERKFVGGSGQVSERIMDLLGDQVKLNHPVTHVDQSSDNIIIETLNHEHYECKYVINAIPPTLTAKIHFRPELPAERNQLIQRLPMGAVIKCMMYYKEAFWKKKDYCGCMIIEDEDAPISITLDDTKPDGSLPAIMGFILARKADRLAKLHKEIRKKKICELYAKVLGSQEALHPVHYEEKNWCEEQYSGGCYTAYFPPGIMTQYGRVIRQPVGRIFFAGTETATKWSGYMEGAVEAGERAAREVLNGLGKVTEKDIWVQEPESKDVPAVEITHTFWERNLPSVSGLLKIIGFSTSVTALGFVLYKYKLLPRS
Procedure, shortened: (§1)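 Enzyme in pH 7.4 phosphate buffer; 30 min, 37° C with compound (DMSO <1%); start with 200 uM Amplex Red + 1 U/mL HRP + tyramine 0.5 mM (MAO-A) or benzylamine 1 mM (MAO-B); kinetic read ex 544/em 590, 1-2 h; % rate decrease vs DMSO control → IC50, 4-parameter fit.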

[3] = biological target: T3, recombinant human MAO-B (monoamine oxidase-B) (Homo sapiens, UniProt P27338); assay: Activity on recombinant human MAO-B, Amplex Red method, 1 mM benzylamine substrate; conditions: read-out: Inhibitory Activity (IC50, nM) MAO-B
T3 construct: purchased Sigma-Aldrich
T3 sequence (P27338 1-520): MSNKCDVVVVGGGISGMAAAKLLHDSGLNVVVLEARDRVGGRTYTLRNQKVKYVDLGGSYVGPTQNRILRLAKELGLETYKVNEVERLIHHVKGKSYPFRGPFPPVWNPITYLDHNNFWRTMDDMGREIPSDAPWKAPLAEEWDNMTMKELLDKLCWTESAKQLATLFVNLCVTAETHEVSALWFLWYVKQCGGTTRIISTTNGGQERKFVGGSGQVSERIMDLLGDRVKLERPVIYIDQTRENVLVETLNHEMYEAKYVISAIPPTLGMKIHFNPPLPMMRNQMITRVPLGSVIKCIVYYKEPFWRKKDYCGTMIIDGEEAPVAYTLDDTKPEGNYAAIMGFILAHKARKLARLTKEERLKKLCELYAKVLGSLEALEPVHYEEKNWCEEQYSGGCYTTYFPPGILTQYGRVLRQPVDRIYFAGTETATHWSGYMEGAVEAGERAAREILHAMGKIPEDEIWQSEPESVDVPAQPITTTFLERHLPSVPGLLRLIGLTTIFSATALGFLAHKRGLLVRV
Procedure, shortened: as §1

[4] = biological target: T4, recombinant human DAO (diamine oxidase) (Homo sapiens, UniProt P19801); assay: Activity on recombinant human DAO, Amplex Red method, 1 mM putrescine substrate; conditions: recombinant human DAO, read-out: Inhibitory Activity (IC50, nM) DAO
T4 construct: purchased R&D systems
T4 sequence (P19801 20-751): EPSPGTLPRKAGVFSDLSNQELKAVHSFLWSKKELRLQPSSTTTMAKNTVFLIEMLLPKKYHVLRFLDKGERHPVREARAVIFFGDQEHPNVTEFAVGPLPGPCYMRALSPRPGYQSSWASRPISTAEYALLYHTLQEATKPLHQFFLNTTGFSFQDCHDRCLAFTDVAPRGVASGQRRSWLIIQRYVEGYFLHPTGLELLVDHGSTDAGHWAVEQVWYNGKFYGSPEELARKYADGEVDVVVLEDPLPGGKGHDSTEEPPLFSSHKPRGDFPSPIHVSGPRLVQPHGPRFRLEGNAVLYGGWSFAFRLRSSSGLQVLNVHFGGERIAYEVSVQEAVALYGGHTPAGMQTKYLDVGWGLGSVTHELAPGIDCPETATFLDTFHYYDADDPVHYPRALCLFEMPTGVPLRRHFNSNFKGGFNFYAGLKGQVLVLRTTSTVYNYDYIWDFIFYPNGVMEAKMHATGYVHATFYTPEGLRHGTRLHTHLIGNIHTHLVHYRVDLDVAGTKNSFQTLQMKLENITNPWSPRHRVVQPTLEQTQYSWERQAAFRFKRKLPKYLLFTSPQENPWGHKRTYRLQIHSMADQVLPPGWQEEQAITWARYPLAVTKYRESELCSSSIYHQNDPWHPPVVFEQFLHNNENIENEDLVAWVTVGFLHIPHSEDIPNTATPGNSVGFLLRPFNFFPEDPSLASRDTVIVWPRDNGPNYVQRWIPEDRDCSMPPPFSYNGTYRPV
Procedure, shortened: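 Inhibition of recombinant human DAO (diamine oxidase, R&D systems) was assessed with the Amplex Red Hydrogen Peroxide Assay Kit. Hydrogen peroxide produced from 1 mM putrescine was detected through an HRP-coupled reaction that converts Amplex Red into fluorescent resorufin, read at 544 nm excitation and 590 nm emission. IC50 values came from four-parameter logistic fits in GraphPad Prism.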

[5] = 1 mM putrescine, * = between 10 and 100 nM, ** = between 300 and 1000 nM

Row | Compound | IC50 ([1]; 30 min preincubation at 37° C.) [nM] | IC50 ([2]; 0.5 mM tyramine) [nM] | IC50 ([3]; 1 mM benzylamine) [nM] | IC50 [4, 5] [nM] | IC50 [1] [nM] | IC50 ([2]; 0.5 mM tyramine substrate) [nM] | IC50 ([3]; 1 mM benzylamine substrate) [nM] | IC50 ([4]; 1 mM putrescine substrate) [nM]
1 | Cc1cc(-c2ccc3cn[nH]c3c2)ncc1-n1cnn(C/C(=C/F)CN)c1=O [Example 126, 2-[(2E)-2-(aminomethyl)-3-fluoroprop-2-en-1-yl]-4-[6-(1H-indazol-6-yl)-4-methylpyridin-3-yl]-2,4-dihydro-3H-1,2,4-triazol-3-one] | 0.87 | > 100000 | 133 | < 100 |  |  |  | 
2 | NC/C(=C\F)Cn1ncn(-c2cc(-c3ccc4sc(N)nc4c3)ccn2)c1=O [Example 173, 4-[4-(2-amino-1,3-benzothiazol-5-yl)pyridin-2-yl]-2-[(2E)-2-(aminomethyl)-3-fluoroprop-2-en-1-yl]-2,4-dihydro-3H-1,2,4-triazol-3-one] |  |  |  |  | 0.41 | > 100000 | > 10000 | 5.9
3 | NC/C(=C/F)Cn1ncn(-c2ccc(Br)cc2F)c1=O [Example 11, 2-[(2Z)-2-(aminomethyl)-3-fluoroprop-2-en-1-yl]-4-(4-bromo-2-fluorophenyl)-2,4-dihydro-3H-1,2,4-triazol-3-one hydrochloride] | 1.5 | 200 | 12 | 209 |  |  |  | 
4 | NC/C(=C\F)Cn1ncn(-c2ccc(Br)cc2)c1=O [Example 2, 2-[(2E)-2-(aminomethyl)-3-fluoroprop-2-en-1-yl]-4-(4-bromophenyl)-2,4-dihydro-3H-1,2,4-triazol-3-one] | 0.9 | 2900 | 86 | 120 |  |  |  | 
5 | NC/C(=C\F)Cn1ncn(-c2cccc(C#Cc3ccc4c(n3)OCCN4)n2)c1=O [Example 253, 2-[(E)-2-(aminomethyl)-3-fluoro-allyl]-4-[6-[2-(2,3-dihydro-1H-pyrido[2,3-b][1,4]oxazin-6-yl)ethynyl]-2-pyridyl]-1,2,4-triazol-3-one] |  |  |  |  | 0.5 | > 100000 | > 10000 | 34
6 | NC/C(=C\F)Cn1ncn(-c2ccnc(-c3ccc(N4CCOCC4)cc3)c2)c1=O [Example 207, 2-[(2E)-2-(aminomethyl)-3-fluoroprop-2-en-1-yl]-4-{2-[4-(morpholin-4-yl)phenyl]pyridin-4-yl}-2,4-dihydro-3H-1,2,4-triazol-3-one hydrochloride] |  |  |  |  | 0.45 | > 100000 | 1400 | < 10

More lines, now with the values ahead:

Row | IC50 ([1]; 30 min preincubation at 37° C.) [nM] | IC50 ([2]; 0.5 mM tyramine) [nM] | IC50 ([3]; 1 mM benzylamine) [nM] | IC50 [4, 5] [nM] | IC50 [1] [nM] | IC50 ([2]; 0.5 mM tyramine substrate) [nM] | IC50 ([3]; 1 mM benzylamine substrate) [nM] | IC50 ([4]; 1 mM putrescine substrate) [nM] | Compound
7 | 1 | > 100000 | 22 | < 100 |  |  |  |  | COc1ncc(-c2cccc(-n3cnn(C/C(=C/F)CN)c3=O)c2)cc1C(F)(F)F [Example 87, 2-[(2E)-2-(aminomethyl)-3-fluoroprop-2-en-1-yl]-4-{3-[6-methoxy-5-(trifluoromethyl)pyridin-3-yl]phenyl}-2,4-dihydro-3H-1,2,4-triazol-3-one hydrochloride]
8 | 0.66 | > 100000 | > 10000 | 3.9 |  |  |  |  | CS(=O)(=O)c1ccc(-c2ccc(-c3cccc(-n4cnn(C/C(=C/F)CN)c4=O)c3)cc2)cc1 [Example 66, 2-[(2E)-2-(aminomethyl)-3-fluoroprop-2-en-1-yl]-4-[4″-(methylsulfonyl)-1,1′:4′,1″-terphenyl-3-yl]-2,4-dihydro-3H-1,2,4-triazol-3-one hydrochloride]
9 | 1 | 17300 | 240 | < 30 |  |  |  |  | NC/C(=C\F)Cn1ncn(-c2cccc(-c3cccc(-c4ccc5c(c4)OCO5)c3)c2)c1=O [Example 71, 2-[(2E)-2-(aminomethyl)-3-fluoroprop-2-en-1-yl]-4-[3′-(1,3-benzodioxol-5-yl)biphenyl-3-yl]-2,4-dihydro-3H-1,2,4-triazol-3-one hydrochloride]
10 |  |  |  |  | 0.7 | > 100000 | 110 | < 10 | CC(C)c1nc(-c2cccc(-c3cc(-n4cnn(C/C(=C/F)CN)c4=O)ccn3)c2)no1 [Example 206, 2-[(2E)-2-(aminomethyl)-3-fluoroprop-2-en-1-yl]-4-(2-{3-[5-(propan-2-yl)-1,2,4-oxadiazol-3-yl]phenyl}pyridin-4-yl)-2,4-dihydro-3H-1,2,4-triazol-3-one hydrochloride]
11 | 0.6 | > 100000 | > 10000 | 4.7 |  |  |  |  | Cc1cc(-c2cccc(-n3cnn(C/C(=C/F)CN)c3=O)c2)cn(C)c1=O [Example 89, 5-(3-{1-[(2E)-2-(aminomethyl)-3-fluoroprop-2-en-1-yl]-5-oxo-1,5-dihydro-4H-1,2,4-triazol-4-yl}phenyl)-1,3-dimethylpyridin-2(1H)-one hydrochloride]
